Measured values published in patent US20260325464A1, “COMPOSITIONS FOR MODULATING THE EXPRESSION OF AQUAPORINS IN NEURODEGENERATIVE DISORDERS” (priority 2023, published 2026).
Read-outs that look alike come from different tables or passages of the source. Marks after values point to notes of the source that are not given here.

How the values were obtained:
BDNF = BDNF level in brain homogenate (ELISA), AlCl3 Alzheimer's model; type: in vivo, rat; conditions: for BDNF: p.o. + AlCl3 (100 mg/kg, i.p.), brain homogenate, Mean ± SEM, n = 6
Description: Brain-derived neurotrophic factors (BDNFs) play an important role in maintaining synaptic plasticity in learning and memory. Depletion of BDNF has been linked with Aβ accumulation, tau phosphorylation, neuroinflammation and neuronal apoptosis. Considering AD as a synaptic disorder, BDNF has attracted increasing attention as a potential diagnostic biomarker and a therapeutical molecule for AD. In the current study, BDNF levels were determiner using ELISA kit (Krishgen Biosystems, India).

[1] = system: frontal cortex and hippocampus; test: Brain histopathology (H&E), AlCl3 Alzheimer's model; type: in vivo, rat; conditions: 5 mg/kg, 10 mg/kg and 20 mg/kg
Description: The brain histopathology was done for all the experimental groups. The brain tissue was fixed in 10% buffered neutral formalin solution. The tissue was embedded in paraffin, sectioned at […] stained with hematoxylin and eosin (H&E). The sections were examined under light microscope to study the architecture of the brain tissue, and then photomicrographs were taken (Fischer A H, Jacobson K A, Rose J, Zeller R. Hematoxylin and eosin staining of tissue and cell sections. CSH Protoc. 2008:1;pdb.prot4986. doi: 10.1101/pdb.prot4986).

[2] = system: acetylcholinesterase (AChE); conditions: for Ach E: p.o. + AlCl3 (100 mg/kg, i.p.), brain homogenate, Mean ± SEM, n = 6
Description: At the conclusion of the study, the rats were euthanized by decapitation, and their brains were swiftly removed and placed in ice-cold saline solution. The cortex and hippocampus were carefully isolated and submerged in an ice-cold water container to halt enzymatic reactions. The levels of acetylcholinesterase (AChE) and butyrylcholinesterase (BChE) in the cortex and hippocampus regions of the brain were determined using Ellman's method from 1961. Approximately 100 mg of the isolated brain sections were weighed and homogenized in phosphate buffer (0.1 M, pH 8.0). To 0.4 mL of the homogenate, the following components were added: 2.6 mL of phosphate buffer (0.1 M, pH 8.0), 100 μL of 10 mM 5,5-dithio-bis-(2-nitrobenzoic acid) (DTNB), and 20 μL of acetylthiocholine iodide (AChI) solution (0.075 M). The mixture was thoroughly mixed. The absorbance was then measured at 412 nm for a duration of 5 minutes.
n=6, All the values were expressed in Mean±SEM (n=6). The statistical analysis was carried out using one way ANOVA.

Apolipoprotein E = Apolipoprotein E level in plasma (ELISA), AlCl3 Alzheimer's model; type: in vivo, rat; conditions: for Apolipoprotein E: p.o. + AlCl3 (100 mg/kg, i.p.), plasma, Mean ± SEM, n = 6
Description: (§1) The levels of Tau, β-amyloid (1-42) and Apolipoprotein E were estimated. using ELISA kit (Krishgen Biosystems, India). All the protein biomarkers of AD were elevated in the AD control group.

Parkinson's disease [3] = test: Catalepsy test in rats with reserpine-induced Parkinson's disease; type: in vivo, rat; parameters: catalepsy score at 30 min / catalepsy score at 60 min / catalepsy score at 120 min: unit not given here; conditions: for catalepsy score at 30 min / catalepsy score at 60 min / catalepsy score at 120 min: p.o. + Reserpine (4 mg/kg, s.c.), Mean ± SEM, n = 6
Description: (§2) The induction of Parkinson's disease and measurement of other parameters were done as per the reported protocol (Santos et al., Cognitive, motor and tyrosine hydroxylase temporal impairment in a model of parkinsonism induced by reserpine. Behav Brain Res. 2013; 253:68-77 and Shishehbore et al. A novel kinetic spectrophotometric method for the determination of dopamine in biological and pharmaceutical samples. J Chem. 2013; 2013:1-6). Induction of Parkinson's disease was done by administering Resperine, which inhibits the monoamine vesicular transporters, thus decreasing the levels of monoamine neurotransmitters in the brain. Following pretreatment for 14 days with Gingerenone A, the rat groups received subcutaneous injections of reserpine (4 mg/kg) for the final five days of the treatment regimen. Resperine (5 mg) was dissolved in 1 ml of 1% acetic acid and then diluted tenfold with distilled water to achieve a final concentration of 500 μg/ml. The normal control group received saline with 1% acetic acid […], administered from day 10 to day 14. Thirty minutes following the administration of reserpine on the 14th day, behavioural assessments were conducted using the Open Field test, Y Maze, and Catalepsy tests to evaluate changes. Rats administered with Carbidopa, a known drug for the management of Parkinson's disease was also used for comparison. Upon completion of the study, brains were harvested for biochemical analyses and histopathological studies. The experimental group is depicted in table 10.
NeuroMol Med. 202022(2):314-330. Catalepsy in rats' manifests as an unresponsiveness to external stimuli accompanied by muscle rigidity. During the catalepsy test, rats were positioned on a wooden bar elevated 3-9 cm above the surface, with their forelimbs resting on it after administration of reserpine. The time taken for the rats to correct their posture was recorded as an indicator of catalepsy. Catalepsy ceased either when the rats climbed up the bar or when their forelimbs touched the floor. Observations were made at 30, 60, and 120 minutes after administration. All assessments were conducted in a quiet environment at a temperature of 23-25 degrees Celsius, with a maximum observation time of 5 minutes per trial.

Parkinson's disease [4] = test: Open field test in rats with reserpine-induced Parkinson's disease; type: in vivo, rat; conditions: for Freezing / Number of central explorations / Number of squares crossed: p.o. + Reserpine (4 mg/kg, s.c.), open field, Mean ± SEM, n = 6
Description: as §2
Open filed test—The test was conducted as per protocol described by Saleem et al., Pharmacological Potential of the Standardized Methanolic Extract of Prunus armeniaca L. in the Haloperidol-Induced Parkinsonism Rat Model. Evid Based Complement Alternat Med. 2022:29; 3697522. doi: 10.1155/2022/3697522. This test was conducted to assess the locomotor and exploratory behaviors of the experimental rats. A square-shaped wooden box measuring 100 cm in width, 100 cm in […], and 45 cm in height was constructed using plywood material, painted white, with a black-lined floor divided into 25 blocks. The rats were placed in the center of the field for a duration of 5 minutes and allowed to explore the box freely. The number of squares crossed, both centrally and horizontally, along with the total number of crossings, instances of defecation, freezing behavior, and postures were recorded during this period. Normal animals readily and quickly acclimate to the chamber and try to explore the center area of the squares.

Fibrinogen = test: Inflammatory marker fibrinogen (ELISA), AlCl3 Alzheimer's model; type: in vivo, rat; conditions: for Fibrinogen: p.o. + AlCl3 (100 mg/kg, i.p.), Mean ± SEM, n = 6
Description: The inflammatory markers Fibrinogen, IL-1β were estimated using ELISA kit (Krishgen Biosystems, India).

β-amyloid (1-42) = β-amyloid (1-42) level in plasma (ELISA), AlCl3 Alzheimer's model; type: in vivo, rat; conditions: for β-amyloid: p.o. + AlCl3 (100 mg/kg, i.p.), plasma, Mean ± SEM, n = 6
Description: as §1

SMILES: COc1cc(CC/C=C/C(=O)CCc2ccc(O)c(OC)c2)ccc1O [Gingerenone A]
- BDNF (BDNF; 5 mg/kg): 29.36 ± 1.09 pg/mL
- BDNF (BDNF; 10 mg/kg): 36.07 ± 1.54 pg/mL
- BDNF (BDNF; 20 mg/kg): 38.76 ± 2.05 pg/mL
- levels of BDNF (in words) (BDNF; AlCl3 model, Table 6): significantly increased the levels of BDNF
- histopathology of frontal cortex ([1]; FIG. 5A, 6A, 7A): intact pyramidal cells having round to oval vesicular nucleus with abundant cytoplasm, neuroglial cells, granular cells and intact blood vessels with degenerated cells [mild to moderate] with dystrophic changes having shrunken and hyperchromatic nuclei and without inflammation
- histopathology of hippocampus (CA1, CA2, CA3) ([1]; FIG. 5B-D, 6B-D, 7B-D): intact architecture consisting of Cornu Ammonis [CA] and dentate gyrus with compact layers of pyramidal cells having vesicular nuclei and moderate cytoplasm without shrinkage and necrosis
- Ach E ([2]; 5 mg/kg): 11.76 ± 0.93 10^−6 /mol/g of tissue
- Ach E ([2]; 10 mg/kg): 8.77 ± 0.49** 10^−6 /mol/g of tissue
- Ach E ([2]; 20 mg/kg): 6.87 ± 0.34** 10^−6 /mol/g of tissue
- Acetyl cholinesterase (in words) ([2]; AlCl3 model, Table 5): significantly inhibited Acetyl cholinesterase
- Apolipoprotein E (Apolipoprotein E; 5 mg/kg): 7.47 ± 0.054 ng/mL
- Apolipoprotein E (Apolipoprotein E; 10 mg/kg): 7.08 ± 0.076 ng/mL
- Apolipoprotein E (Apolipoprotein E; 20 mg/kg): 6.84 ± 0.034 ng/mL
- levels of Apolipoprotein E (in words) (Apolipoprotein E; AlCl3 model, Table 8): significantly reduced
- catalepsy score at 30 min (Parkinson's disease [3]; 5 mg/kg): 2.46 ± 0.15
- catalepsy score at 60 min (Parkinson's disease [3]; 5 mg/kg): 2.52 ± 0.54
- catalepsy score at 120 min (Parkinson's disease [3]; 5 mg/kg): 2.43 ± 0.70
- catalepsy score at 30 min (Parkinson's disease [3]; 10 mg/kg): 1.76 ± 0.11
- catalepsy score at 60 min (Parkinson's disease [3]; 10 mg/kg): 1.72 ± 0.73
- catalepsy score at 120 min (Parkinson's disease [3]; 10 mg/kg): 1.71 ± 0.75
- catalepsy score at 30 min (Parkinson's disease [3]; 20 mg/kg): 1.58 ± 0.16
- catalepsy score at 60 min (Parkinson's disease [3]; 20 mg/kg): 1.55 ± 0.32
- catalepsy score at 120 min (Parkinson's disease [3]; 20 mg/kg): 1.50 ± 0.82
- muscle rigidity in catalepsy test (in words) (Parkinson's disease [3]; reserpine model, Table 13): significantly improved muscle rigidity
- Freezing (Parkinson's disease [4]; 5 mg/kg): 15.29 ± 0.35 s
- Number of central explorations (Parkinson's disease [4]; 5 mg/kg): 12.57 ± 1.05
- Number of squares crossed (Parkinson's disease [4]; 5 mg/kg): 21.62 ± 2.47
- Freezing (Parkinson's disease [4]; 10 mg/kg): 10.38 ± 0.62 s
- Number of central explorations (Parkinson's disease [4]; 10 mg/kg): 17.34 ± 1.20
- Number of squares crossed (Parkinson's disease [4]; 10 mg/kg): 27.45 ± 2.06
- Freezing (Parkinson's disease [4]; 20 mg/kg): 9.02 ± 0.45 s
- Number of central explorations (Parkinson's disease [4]; 20 mg/kg): 17.27 ± 0.98
- Number of squares crossed (Parkinson's disease [4]; 20 mg/kg): 26.26 ± 2.27
- locomotory and exploratory behaviors (in words) (Parkinson's disease [4]; reserpine model, Table 11): significantly improved the behavior
- Fibrinogen (Fibrinogen; 5 mg/kg): 22.80 ± 0.738 ng/mL
- Fibrinogen (Fibrinogen; 10 mg/kg): 19.05 ± 0.232 ng/mL
- Fibrinogen (Fibrinogen; 20 mg/kg): 16.65 ± 0.431 ng/mL
- fibrinogen (in words) (Fibrinogen; AlCl3 model, Table 9): significantly reduced
- β-amyloid (β-amyloid (1-42); 5 mg/kg): 10.74 ± 0.035 pg/mL
- β-amyloid (β-amyloid (1-42); 10 mg/kg): 8.04 ± 0.023 pg/mL
- β-amyloid (β-amyloid (1-42); 20 mg/kg): 7.88 ± 0.065 pg/mL
- levels of β-amyloid (in words) (β-amyloid (1-42); AlCl3 model, Table 7): significantly reduced
